Drawing on ChEMBL document CHEMBL1131764, “Solid phase synthesis and biological activities of [Arg8]-vasopressin methylenedithioether” (1999), this text covers Activity for 2 compounds.

In experiment [1] the test system is Rattus norvegicus. In words: Antidiuretic test on conscious rats was determined. In kind it is functional, Urine.
Experiment [2] is filed under the species Rattus norvegicus. As to the kind of experiment: In vitro biological activity in the absence of magnesium ions was determined in rats by Uterotonic test. In kind it is functional.
The species entered for experiment [3] is Rattus norvegicus. As to the kind of experiment: Vasopressor test using phonoxybenzamine treated male rats was determined. In kind it is functional.

For the compound `NC(=O)CC[C@@H]1NC(=O)[C@H](Cc2ccccc2)NC(=O)[C@H](Cc2ccc(O)cc2)NC(=O)[C@@H](N)CSCSC[C@@H](C(=O)N2CCC[C@H]2C(=O)N[C@@H](CCCN=C(N)N)C(=O)NCC(N)=O)NC(=O)[C@H](CC(N)=O)NC1=O`, the values for the Activity in experiment [1], in experiment [2] and in experiment [3] were 46.5 IU mg-1, 1.4 IU mg-1 and 55.3 IU mg-1, respectively.
`N=C(N)NCCC[C@H](NC(=O)[C@@H]1CCCN1C(=O)[C@@H]1CSSC[C@H](N)C(=O)N[C@@H](Cc2ccc(O)cc2)C(=O)N[C@@H](Cc2ccccc2)C(=O)N[C@@H](CCC(N)=O)C(=O)N[C@@H](CC(N)=O)C(=O)N1)C(=O)NCC(N)=O` [VASOPRESSIN]: the values for the Activity in experiment [1], in experiment [2] and in experiment [3] were 465 IU mg-1, 17 IU mg-1 and 412 IU mg-1, respectively.
